PMC9917406, “Synthesis, Biological and In Silico Studies of Griseofulvin and Usnic Acid Sulfonamide Derivatives as Fungal, Bacterial and Human Carbonic Anhydrase Inhibitors” (International Journal of Molecular Sciences, 2023)
Where two headings read alike, the source gives them in different places.

Columns and labels:
Type in all cases: biochemical
[1] = biological target: T1, PgiCAγ (Porphyromonas gingivalis, UniProt Q7MV79); test: stopped-flow CO2 hydrase assay, PgiCAγ; settings: for Ki: mean from 3 different assays, errors ±5–10%
T1 sequence (Q7MV79 1-192): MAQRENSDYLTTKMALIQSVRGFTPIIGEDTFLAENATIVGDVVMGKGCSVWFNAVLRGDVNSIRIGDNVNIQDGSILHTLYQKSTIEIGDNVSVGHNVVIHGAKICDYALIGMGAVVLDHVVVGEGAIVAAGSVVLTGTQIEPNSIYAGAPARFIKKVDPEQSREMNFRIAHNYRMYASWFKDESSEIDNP

[2] = biological target: T2, SmuCA (Streptococcus mutans, UniProt Q8DVY1); test: stopped-flow CO2 hydrase assay, SmuCA; settings: for Ki: mean from 3 different assays, errors ±5–10%
T2 sequence (Q8DVY1 1-166): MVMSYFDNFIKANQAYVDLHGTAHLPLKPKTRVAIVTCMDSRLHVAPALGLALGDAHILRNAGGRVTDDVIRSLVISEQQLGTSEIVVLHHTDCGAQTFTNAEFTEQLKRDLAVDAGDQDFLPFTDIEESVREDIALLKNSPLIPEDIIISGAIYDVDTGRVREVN

[3] = biological target: CpsCAγ (Colwellia psychrerythraea, UniProt Q48AV3); test: biochemical
[4] = biological target: T3, MgCA (Malassezia globosa, UniProt A8Q1N3); test: stopped-flow CO2 hydrase assay, MgCA; settings: mean from 3 different assays, errors ±5–10%
T3 sequence (A8Q1N3 1-241): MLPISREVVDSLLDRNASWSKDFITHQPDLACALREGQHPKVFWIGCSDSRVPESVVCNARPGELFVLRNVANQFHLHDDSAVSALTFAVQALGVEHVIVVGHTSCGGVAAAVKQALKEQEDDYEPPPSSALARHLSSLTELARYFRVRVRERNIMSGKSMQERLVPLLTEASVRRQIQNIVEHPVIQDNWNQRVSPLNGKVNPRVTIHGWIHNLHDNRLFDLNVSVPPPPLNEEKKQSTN

[5] = biological target: BpsCAγ (Burkholderia pseudomallei, UniProt Q63SQ4); settings: read-out: KI BpsCAγ
[6] = biological target: hCA I (Homo sapiens, UniProt P00915); test: stopped-flow CO2 hydrase assay, hCA I; settings: mean from 3 different assays, errors ±5–10%
[7] = biological target: hCA II (Homo sapiens, UniProt P00918); test: stopped-flow CO2 hydrase assay, hCA II; settings: for Ki: mean from 3 different assays, errors ±5–10%; for selectivity index (SI) towards hCA I: hCA II inhibition relative to hCA I; for selectivity index (SI) towards hCA IX: hCA II inhibition relative to hCA IX
[8] = biological target: T4, PgiCAβ (Porphyromonas gingivalis, UniProt B2RL07); test: stopped-flow CO2 hydrase assay, PgiCAβ; settings: mean from 3 different assays, errors ±5–10%
T4 sequence (B2RL07 19-242): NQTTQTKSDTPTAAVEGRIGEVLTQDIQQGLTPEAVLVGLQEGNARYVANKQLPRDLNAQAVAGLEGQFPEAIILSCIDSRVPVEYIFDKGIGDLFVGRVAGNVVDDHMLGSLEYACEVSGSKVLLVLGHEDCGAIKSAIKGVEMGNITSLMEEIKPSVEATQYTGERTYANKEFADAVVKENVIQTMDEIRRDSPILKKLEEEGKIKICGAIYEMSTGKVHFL

[9] = biological target: hCA IX (Homo sapiens, UniProt Q16790); test: stopped-flow CO2 hydrase assay, hCA IX; settings: mean from 3 different assays, errors ±5–10%; read-out: KI hCAIX
[10] = mean from 3 different assays, errors ±5–10%, read-out: KI CpsCAγ

Chain of CpsCAγ (Q48AV3 entry or part of it): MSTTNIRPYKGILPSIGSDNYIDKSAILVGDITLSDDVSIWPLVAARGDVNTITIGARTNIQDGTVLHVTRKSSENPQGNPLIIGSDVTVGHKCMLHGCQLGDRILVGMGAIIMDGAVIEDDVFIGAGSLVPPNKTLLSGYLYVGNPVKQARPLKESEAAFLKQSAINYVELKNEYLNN
Chain of hCA I (P00915 whole entry): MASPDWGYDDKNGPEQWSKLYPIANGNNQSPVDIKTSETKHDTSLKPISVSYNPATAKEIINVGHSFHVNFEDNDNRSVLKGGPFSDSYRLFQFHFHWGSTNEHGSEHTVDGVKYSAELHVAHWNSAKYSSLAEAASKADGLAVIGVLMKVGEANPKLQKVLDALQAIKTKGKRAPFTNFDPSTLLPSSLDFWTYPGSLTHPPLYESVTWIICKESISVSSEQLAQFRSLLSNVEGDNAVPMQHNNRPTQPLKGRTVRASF
Chain of BpsCAγ (Q63SQ4 1-174): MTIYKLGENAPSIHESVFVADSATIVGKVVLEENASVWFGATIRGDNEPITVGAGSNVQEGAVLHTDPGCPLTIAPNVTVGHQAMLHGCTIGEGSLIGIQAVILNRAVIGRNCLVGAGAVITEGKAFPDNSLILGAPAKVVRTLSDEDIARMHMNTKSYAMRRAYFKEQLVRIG

| Structure (SMILES) | SI towards PgiCAβ ([1]; PgiCAγ inhibition relative to PgiCAβ) | fold more active than acetazolamide ([1]; against PgiCAγ) | Ki [1] | Ki [2] | Ki [3] | Ki [4] | Ki [5] | Ki [6] | Ki [7] | Ki [8] | Ki [9] | SI towards all other bacterial strains ([2]; S. mutans CA inhibition relative to other bacterial CAs) | selectivity index (SI) towards hCA I [7] | selectivity index (SI) towards hCA IX [7] | Ki [3, 10] | SI towards BpsCAγ ([3]; CpsCAγ inhibition relative to BpsCAγ) | SI towards PgiCAγ ([3]; CpsCAγ inhibition relative to PgiCAγ) | SI towards S. mutans ([3]; CpsCAγ inhibition relative to S. mutans CA) |
| --- | --- | --- | --- | --- | --- | --- | --- | --- | --- | --- | --- | --- | --- | --- | --- | --- | --- | --- |
| COc1cc(OC)c2c(c1Cl)OC1(C(=O)C=C(NCCS(N)(=O)=O)CC1C)C2=O [Compound 1a, 2-(((2S,6′R)-7-chloro-4,6-dimethoxy-6′-methyl-2′,3-dioxo-3H-spiro[benzofuran-2,1′-cyclohexan]-3′-en-4′-yl)amino)ethane-1-sulfonamide] | 8.5 | 3.5 fold | 92.1 nM | 1630 nM | 3150 nM | 544 nM | 448 nM | 562 nM | 653 nM | 779 nM | 31.2 nM |  |  |  |  |  |  |  |
| COc1cc(OC)c2c(c1Cl)OC1(C(=O)C=C(Nc3ccc(S(N)(=O)=O)cc3)CC1C)C2=O [Compound 1b, 4-(((2S,6′R)-7-chloro-4,6-dimethoxy-6′-methyl-2′,3-dioxo-3H-spiro[benzofuran-2,1′-cyclohexan]-3′-en-4′-yl)amino)benzenesulfonamide] |  |  | 820 nM | 294 nM | 939 nM | 476 nM | 945 nM | 234 nM | 64.4 nM | 819 nM | 203 nM | 3 |  |  |  |  |  |  |
| COc1cc(OC)c2c(c1Cl)OC1(C(=O)C=C(NCc3ccc(S(N)(=O)=O)cc3)CC1C)C2=O [Compound 1c, 4-((((2S,6′R)-7-chloro-4,6-dimethoxy-6′-methyl-2′,3-dioxo-3H-spiro[benzofuran-2,1′-cyclohexan]-3′-en-4′-yl)amino)methyl)benzenesulfonamide] |  |  | 661 nM | 4000 nM | 900 nM | 568 nM | 833 nM | 74.6 nM | 29.1 nM | 896 nM | 102 nM |  |  |  |  |  |  |  |
| COc1cc(OC)c2c(c1Cl)OC1(C(=O)C=C(Nc3ccc(S(N)(=O)=O)cc3O)CC1C)C2=O [Compound 1d, 4-(((2S,6′R)-7-chloro-4,6-dimethoxy-6′-methyl-2′,3-dioxo-3H-spiro[benzofuran-2,1′-cyclohexan]-3′-en-4′-yl)amino)-3-hydroxybenzenesulfonamide] |  |  | 584 nM | 897 nM | 591 nM | 1590 nM | 878 nM | 28.8 nM | 4.9 nM | 1280 nM | 29.4 nM |  | 5.88 | 6.00 |  |  |  |  |
| COc1cc(OC)c2c(c1Cl)O[C@@]1(C(=O)/C(=C\NCc3ccc(S(N)(=O)=O)cc3)C(=O)C[C@H]1C)C2=O [Compound 1e] |  |  | 1270 nM | 1640 nM | 220 nM | 1830 nM | 1060 nM | 320 nM | 165 nM | 940 nM | 29.2 nM |  |  |  |  |  |  |  |
| COc1cc(OC)c2c(c1Cl)O[C@@]1(C(=O)C(=CNCCc3ccc(S(N)(=O)=O)cc3)C(=O)C[C@H]1C)C2=O [Compound 1f, 4-(2-((((2R,2′R)-7-chloro-4,6-dimethoxy-2′-methyl-3,4′,6′-trioxo-3H-spiro[benzofuran-2,1′-cyclohexan]-5′-ylidene)methyl)amino)ethyl)benzenesulfonamide] |  |  | 602 nM | 2470 nM | 726 nM | 4000 nM | 2280 nM | 348 nM | 70.8 nM | 8360 nM | 30.6 nM |  |  |  |  |  |  |  |
| COc1cc(C(CC(=O)NCCS(N)(=O)=O)C2C(=O)C[C@@H](C)[C@]3(Oc4c(Cl)c(OC)cc(OC)c4C3=O)C2=O)ccc1O (stereo partly drawn) [Compound 1g] |  |  | 2220 nM | 1220 nM |  | 3150 nM | 2330 nM | 2990 nM | 4050 nM | 5590 nM | 710 nM |  |  |  | 301 nM |  |  |  |
| COc1cc(OC)c2c(c1Cl)O[C@]1(C2=O)C(=O)C(C(CC(=O)NCc2ccc(S(N)(=O)=O)cc2)c2ccc(SC)cc2)C(=O)C[C@H]1C (stereo partly drawn) [Compound 1h] |  |  | 853 nM | 580 nM |  | 4350 nM | 1400 nM | 41.1 nM | 7.5 nM | 5750 nM | 73.7 nM |  |  |  | 625 nM |  |  |  |
| COc1cc(OC)c2c(c1Cl)O[C@]1(C2=O)C(=O)C(C(CC(=O)NCCc2ccc(S(N)(=O)=O)cc2)c2ccc(SC)cc2)C(=O)C[C@H]1C (stereo partly drawn) [Compound 1i, 3-((2S,2′R)-7-chloro-4,6-dimethoxy-2′-methyl-3,4′,6′-trioxo-3H-spiro[benzofuran-2,1′-cyclohexan]-5′-yl)-3-(4-(methylthio)phenyl)-N-(4-sulfamoylphenethyl)propenamide] |  |  | 854 nM | 889 nM |  | 1910 nM | 1040 nM | 15.3 nM | 8.1 nM | 506 nM | 23.3 nM |  |  |  | 804 nM |  |  |  |
| COc1cc(OC)c2c(c1Cl)O[C@]1(C2=O)C(=O)C(C(CC(=O)NCC(=O)Nc2ccc(S(N)(=O)=O)cc2)c2ccc(SC)cc2)C(=O)C[C@H]1C (stereo partly drawn) [Compound 1j, 3-((2S,2′R)-7-chloro-4,6-dimethoxy-2′-methyl-3,4′,6′-trioxo-3H-spiro[benzofuran-2,1′-cyclohexan]-5′-yl)-3-(4-(methylthio)phenyl)-N-(2-oxo-2-((4-sulfamoylphenyl)amino)ethyl)propenamide] |  |  | 2320 nM | 1230 nM |  | 2050 nM | 710 nM | 27.7 nM | 5.7 nM | 3000 nM | 22.5 nM |  |  |  | 177 nM | 4 | 13 | 6.9 |
| CC(=O)c1c(O)c(C)c(O)c2c1OC1=CC(=O)C(=C(C)Nc3ccc(S(N)(=O)=O)cc3O)C(=O)[C@@]12C [Compound 4a, (R)-4-((1-(6-acetyl-7,9-dihydroxy-8,9b-dimethyl-1,3-dioxo-3,9b-dihydrodibenzo[b,d]furan-2(1H)-ylidene)ethyl)amino)-3-hydroxybenzenesulfonamide] |  |  | 897 nM | 841 nM | 723 nM | 3430 nM | 473 nM | 370 nM | 8.4 nM | 888 nM | 66.9 nM |  | 43.9 | 7.96 |  |  |  |  |
| CC(=O)c1c(O)c(C)c(O)c2c1OC1=CC(=O)C(=C(C)Nc3cc(S(N)(=O)=O)ccc3O)C(=O)[C@@]12C [Compound 4b, (R)-3-((1-(6-acetyl-7,9-dihydroxy-8,9b-dimethyl-1,3-dioxo-3,9b-dihydrodibenzo[b,d]furan-2(1H)-ylidene)ethyl)amino)-4-hydroxybenzenesulfonamide] |  |  | 1840 nM | 1700 nM | 809 nM | 2500 nM | 1000 nM |  | 755 nM | 766 nM | 305 nM |  |  |  |  |  |  |  |
